# Laboratory results: patent US11813277B2, “Methods and agents for modulating inflammation” (The Regents of the University of California, priority 2018, dated 2023)
# Legend:
# Arginase = Arginase activity in BMDMs; assay type: cell-based, mouse; conditions: 200 μM etomoxir, IL-4, 24 hr
# Protocol: On Day 6 of differentiation, BMDMs were seeded at 1×10^6 cells/well in 6-well plates. 24 hr later, BMDMs were mock-treated or co-treated with 20 ng/mL IL-4±200 μM etomoxir in DMEM supplemented with 5% FBS, 2 mM L-glutamine, 100 units/mL, 100 μg/mL penicillin/streptomycin, 500 μM of sodium pyruvate and 5% v/v conditioned media containing macrophage colony stimulating factor (M-CSF) for 24 hr. Prior to sample collections, cells were washed with 600 μL of ice-cold PBS twice and scraped into 1.5 mL centrifuge tubes. Cell lysate was prepared according to Arginase Activity Assay Kit (Sigma MAK112) instructions and the 20 μL of lysate was used to measure arginase activity. Arginase activity was adjusted to total cell number.
# [1] = tested on: A549, HCT116, cortical neurons, cortical astrocytes, BMDM, NRVM; assay: Respiration in intact cells offered glucose, glutamine, pyruvate (six cell types); assay type: cell-based
# Protocol: (§1) All respirometry studies were conducted in either a Seahorse XF96 or XFe96 Analyzer. All experiments were conducted at 37° C., and at pH 7.4 (intact cells) or 7.2 (permeabilized cells and isolated mitochondria). Calculation of respiratory parameters was made according to standard protocols (Divakaruni, A. S., Paradyse, A., Ferrick, D. A., Murphy, A. N., and Jastroch, M. (2014a) Analysis and interpretation of microplate-based oxygen consumption and pH data. Meth. Enzym 547, 509-54), and all rates were corrected for non-mitochondrial respiration/background signal by subtracting the oxygen consumption rate insensitive to rotenone plus antimycin A.
# When diagnosing an off-target effect of etomoxir (FIG. 5A, FIG. 5B, FIG. 5C), all cells apart from primary neurons were offered 8 mM glucose, 2 mM glutamine, and 2 mM pyruvate in unbuffered DMEM supplemented with 5 mM HEPES. […] Respiration in all intact cells was measured in the basal state as well as in response to 2 μM oligomycin, FCCP (either 400 nM, 800 nM or 1.2 μM as appropriate and previously optimized), and 0.2 μM rotenone with 1 μM antimycin A. Etomoxir (at concentrations indicated in the text), UK5099 (3 μM), or BPTES (3 μM) were added to the assay medium 30 min prior to measurements.
# 3T3-L1 adipocytes = assay: Maximal respiration in 3T3-L1 adipocytes (positive control); assay type: cell-based; conditions: 3 μM etomoxir
# Protocol: as §1
# Detailed description of FIG. 5. (FIG. 5A) Maximal FCCP-stimulated respiration in response to 3 μM etomoxir in six cell types (experimental conditions in Materials and Methods). […] (n≥3 independent biological replicates). (FIG. 5B) (Left) Maximal respiration in HepG2 cells offered 8 mM glucose, 2 mM glutamine, and 2 mM pyruvate in the experimental medium with BPTES and UK5099 (both at 3 μM)±3 μM etomoxir. (n=4 independent biological replicates). (Right) Maximal respiration in 3T3-L1 adipocytes offered 1 mM glucose and 0.5 mM carnitine in the experimental medium with increasing concentrations of etomoxir. (n=3 independent biological replicates). […]
# BMDMs = assay: Intracellular free coenzyme A levels in BMDMs; assay type: cell-based, mouse; conditions: 200 μM etomoxir, IL-4, 20 hr
# Protocol: On Day 6 of differentiation, BMDMs were seeded at 1.2×10^6 cells/well in 6-well plates. 24 hr later, BMDMs were mock-treated or co-treated with 20 ng/mL IL-4±200 μM etomoxir±500 μM CoA in DMEM supplemented with 5% FBS, 2 mM L-glutamine, 100 units/mL, […] penicillin/streptomycin, 500 μM of sodium pyruvate and 5% v/v conditioned media containing macrophage colony stimulating factor (M-CSF) for 20 hr. Prior to sample collections, cells were washed with 600 μL of 0.9% (w/v) NaCl twice. Three wells per replicate per treatment were combined in 2 mL centrifuge tubes and centrifuged at 500 g for 5 mins at 4° C. The supernatant was removed, and the cell pellet was re-suspended in 75 μL of ice-cold 0.7% (v/v) perchloric acid for 5 min. Samples were then centrifuged at 10,000 g for 7 mins at 4° C. and the resulting supernatant was adjusted to pH 7 with 2M NaOH and 500 mM K2HPO4. The coenzyme A concentration was determined with Coenzyme A Assay Kit following manufacturer's instructions (Sigma MAK034) using 40 μL of sample supernatant. Coenzyme A levels were normalized to total cellular protein (BCA method).
smiles,measurement,setting,value
CCOC(=O)[C@@]1(CCCCCCOc2ccc(Cl)cc2)CO1 [etomoxir],Arginase activity,Arginase,unaffected
same,maximal respiratory rate,"[1]; 3 μM etomoxir, no fatty acids or carnitine",did not inhibit respiration
same,ATP-linked vs uncoupler-stimulated respiration,"[1]; increasing, high concentrations of etomoxir",disproportionately inhibited ATP-linked respiration relative to uncoupler-stimulated respiration
same,respiration,3T3-L1 adipocytes,sufficient to inhibit respiration
same,intracellular free CoA levels,BMDMs,significantly dropped
